According to patent US20080269323A1, “USE OF 4-(NITROOXY)-BUTYL-(S)-2-(6-METHOXY-2-NAPHTHYL)-PROPANOATE FOR TREATING PAIN AND INFLAMMATION” (NICOX S.A., priority 2007, published 2008):

Key:
[1] = tested on: PGE2; assay: Urinary PGE2 production levels; format: in vivo, rat; conditions: rats, oral, two weeks; naproxcinod 14.5 mg/kg, naproxen 10 mg/kg
[2] = Urine flow rate during water-load; format: in vivo, rat; conditions: water-load (90 min) compared to baseline; rats, oral, two weeks
Experimental: After obtaining a set of baseline images, hypotonic glucose-saline (0.25% NaCl, 0.5% glucose) at 1.5 ml/100 g body weight/hr was infused intravenously via the femoral catheter for 2 hours to induce the water-diuresis.

Increase in urine flow during water-load (in words) [2] | Structure (SMILES) | Urinary PGE2 production levels (in words) [1]
substantially less increase | COc1ccc2cc([C@H](C)C(=O)OCCCCO[N+](=O)[O-])ccc2c1 [Naproxcinod, 4-(Nitrooxy)-butyl-(S)-2-(6-methoxy-2-naphthyl)-propanoate] | reduced
substantially less increase | COc1ccc2cc([C@H](C)C(=O)O)ccc2c1 [Naproxen, naproxen] | reduced
